Several values for one entry are separate records, joined by “and”; a condition that tells them apart may be missing. Identical values can stand only once.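 Interpolation was linear, between the two tested concentrations surrounding the appropriate level; five concentrations were tested over 48 hours in 96-well plates. At the GI50, growth is halved. The concentration for full growth arrest is given as TGI.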
How the values were obtained:
Assay in all cases: NCI anticancer screen, dose series, 48 h
KM12 colon = test system: KM12 colon
SK-MEL-2 melanoma = test system: SK-MEL-2 melanoma
RXF 393 renal = test system: RXF 393 renal
T-47D breast = test system: T-47D breast
OVCAR-3 ovarian = test system: OVCAR-3 ovarian
ACHN renal = test system: ACHN renal
A549 NSCLC = test system: A549 NSCLC
DU-145 prostate = test system: DU-145 prostate
MCF7 breast = test system: MCF7 breast
M14 melanoma = test system: M14 melanoma

SMILES | GI50 (KM12 colon) [µM] | TGI (KM12 colon) [µM] | GI50 (SK-MEL-2 melanoma) [µM] | TGI (SK-MEL-2 melanoma) [µM] | GI50 (RXF 393 renal) [µM] | TGI (RXF 393 renal) [µM] | GI50 (T-47D breast) [µM] | TGI (T-47D breast) [µM] | GI50 (OVCAR-3 ovarian) | TGI (OVCAR-3 ovarian) [µM] | GI50 (ACHN renal) [µM] | TGI (ACHN renal) [µM] | GI50 (A549 NSCLC) [µM] | TGI (A549 NSCLC) [µM] | GI50 (DU-145 prostate) [µM] | TGI (DU-145 prostate) [µM] | GI50 (MCF7 breast) [µM] | TGI (MCF7 breast) [µM] | GI50 (M14 melanoma) [µM] | TGI (M14 melanoma) [µM]
C/C(=C(/c1ccc(O)cc1)c1ccc(Cl)cc1)c1ccccc1 | 0.543 | 1.22 | 0.659 | 1.81 | 0.469 | 1.17 | 0.762 | 3.22 | 0.552 µM | 1.31 | 0.628 | 1.8 | 0.723 | 2.53 | 0.719 | 1.91 | 0.767 | 2.07 | 0.654 | 1.93
[N-]=[N+]=CC(=O)COC(=O)c1ccccc1 | – | > 100 | – | > 100 | – | > 100 | – | > 100 | – | > 100 | – | > 100 | – | > 100 | – | > 100 | – | > 100 | – | > 100
Clc1ccc2ns[s+]c2c1 | – | > 100 | – | > 82.5 | – | > 100 | – | 92 | – | > 100 | – | > 94.3 | – | > 100 | – | > 100 | – | > 100 | – | > 100
NC(=S)N/N=C1\CCCC1C(O)(C(F)(F)Cl)C(F)(F)Cl (stereo not given) | – | > 10 | – | > 10 | – | > 10 | – | > 10 | – | > 10 | – | > 10 | – | > 10 | – | > 10 | – | > 10 | – | > 10
Cn1cc(C2=C(c3cn(C)c4cc(N)ccc34)C(=O)NC2=O)c2ccccc21 | 1.45 | 11.8 | 4.26 | 10.6 | 1.84 | 7.59 | 5.7 | > 21.6 | 0.721 µM | > 12.2 | 2.59 | 12.1 | 3.09 | > 25 | 1.84 | 16.8 | 0.696 | > 16.8 | 4.96 | > 25
CC(=O)Nc1ccc(/C=C2/NC(=S)N(/C=C3\C(=O)Oc4ccccc4C3=O)C2=O)cc1 | – | > 100 | – | > 100 | – | > 100 | – | > 100 | – | > 100 | – | > 100 | – | > 100 | – | > 100 | – | > 100 | – | > 100
CC[C@H](Nc1nc(N)nc(C2CC2)c1C#N)c1nc2cccc(NCc3ccc(C(=O)NO)cc3)c2c(=O)n1-c1ccccc1 | 2.07 | 4.69 | 2.44 | 6.75 | 0.582 | 1.99 | 1.82 | 5.78 | 1.73 µM | 4.55 | 1.85 | 4.58 | 1.93 | 4.52 | 1.95 | 4.56 | 2.06 | 8.28 | 2.02 | 4.66
C/C(=N\NC(=S)N1CCN(c2ccccn2)CC1)c1nccs1 | – | 18.9 | – | 9.9 | – | 17.4 | 0.855 | 22.1 | 0.00821 µM and < 0.0205 µM | – | – | 9.96 | – | 13.3 | – | 14.1 | 0.377 | 18.3 | – | 1.49
CC(C)(C)n1cc(-c2ccnc(NCCCNS(=O)(=O)c3ccc(Br)cc3)c2)c(-c2cccc(O)c2)n1 | 2.11 | 4.37 | 2.13 | 4.31 | 1.46 | 2.87 | 2.48 | 8.12 | 2.15 µM | 4.15 | 1.99 | 3.89 | 2.11 | 5.39 | 2.1 | 4.23 | 1.88 | 3.98 | 1.78 | 3.29
Nc1nc(N)nc(CC(=O)O)n1 | – | > 100 | – | > 100 | – | > 100 | – | > 100 | – | > 100 | – | > 100 | – | > 100 | – | > 100 | – | > 100 | – | > 100
CC[C@@]12C=CCN3CC[C@]4(c5cc(NC(=O)COc6cc(OCC(=O)Nc7cc8c(cc7OC)N(C)[C@H]7[C@@](O)(C(=O)OC)[C@H](OC(C)=O)[C@]9(CC)C=CCN%10CC[C@]87[C@@H]%109)cc7oc(-c8ccccc8)cc(=O)c67)c(OC)cc5N(C)[C@@H]4[C@](O)(C(=O)OC)[C@H]1OC(C)=O)[C@H]32 | – | – | 43.5 | > 100 | 1.58 | 3.28 | 57.5 | > 100 | 2.58 µM | 9.72 | > 100 | > 100 | 7.14 | > 100 | 4.46 | > 100 | 3.25 | 21.7 | 6.06 | 28.7
NNS(=O)(=O)c1cc(C(=O)O)cc(C(=O)O)c1 | – | > 100 | – | > 100 | – | > 100 | – | > 100 | – | > 100 | – | > 100 | – | > 100 | – | > 100 | – | > 100 | – | > 100
COC(=O)c1ccc2c(c1)C(=O)c1c-2n(CCCN)c(=O)c2cc(OC)c(OC)cc12 | 7.47 | 26 | 31.2 | > 84.5 | 21.6 | > 52 | 18.9 | 44.9 | 10.2 µM | > 56.8 | 14.8 | 29.8 | 7.49 | 27.2 | 7.89 | 22.8 | 8.79 | 29.3 | 18.7 | 34.4
CCOC(=O)c1c2c(n(Cc3ccccc3)c1C)-c1nc(Cc3ccccc3)[nH]c1C(=O)C2=O | 1.83 | 3.83 | 1.69 | 4.13 | 0.87 | 2.34 | 0.496 | 2.64 | 1.13 µM | 2.47 | 1.64 | 3 | 2.5 | 7.15 | 1.58 | 2.92 | 1.66 | 4.34 | 1.75 | 3.49
CC(=O)c1cccc(-c2cccc(-c3ccn(CCN4CCOCC4)n3)c2)c1 | > 20 | > 20 | > 20 | > 20 | > 20 | > 20 | 17.4 | > 20 | > 20 µM | > 20 | > 20 | > 20 | > 20 | > 20 | > 20 | > 20 | > 20 | > 20 | > 20 | > 20
